Positions of bridges follow the written chain, without caps; N, C: chain ends. Non-standard residues stand in square brackets, D forms with d. Residues, ends and D or L forms follow the SMILES beside them. ξ: configuration not given here. NMeW = CN[C@@H](Cc1c[nH]c2ccccc12)C(=O)O; Ala(2-furyl) = N[C@@H](Cc1ccco1)C(=O)O; NMeY = CN[C@@H](Cc1ccc(O)cc1)C(=O)O; hLeu = CC(C)CC[C@H](N)C(=O)O; ξhLeu = CC(C)CCC(N)C(=O)O; NMeA = CN[C@@H](C)C(=O)O

The source of these data is ChEMBL document CHEMBL4823332, “Discovery and Development of Cyclic Peptide Inhibitors of CIB1” (ACS Med Chem Lett, 2021).

This experiment concerns the target T1, Calcium and integrin-binding protein 1 (Homo sapiens, UniProt Q99828).
T1 sequence (Q99828 whole entry): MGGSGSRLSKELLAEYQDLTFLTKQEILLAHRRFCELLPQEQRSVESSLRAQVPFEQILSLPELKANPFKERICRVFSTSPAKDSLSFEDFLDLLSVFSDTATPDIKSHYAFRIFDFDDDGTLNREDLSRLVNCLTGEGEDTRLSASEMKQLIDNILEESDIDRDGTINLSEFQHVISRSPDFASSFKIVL
Put plainly: Displacement of Alexa Fluor 647 labelled UNC10245092 peptide from CIB1 (unknown origin) preincubated for 20 mins followed by Alexa-CIB1 phage peptide addition and measured after 20 to 30 mins by TR-FRET assay. (In TR-FRET formats the signal depends on donor and acceptor labels being close together.)
As usually defined, the IC50 is the concentration at which inhibition is half-maximal. For the compound `CC[C@H](C)[C@@H]1NC(=O)[C@H](CC(C)C)NC(=O)[C@H](Cc2c[nH]c3ccccc23)NC(=O)[C@H](Cc2ccc(O)cc2)N(C)C(=O)[C@@H]2CCCN2C(=O)[C@H](CCC(N)=O)NC(=O)[C@H](C)NC(=O)[C@H](Cc2ccc(O)cc2)NC(=O)CSC[C@@H](C(N)=O)NC(=O)[C@H](Cc2c[nH]c3ccccc23)NC(=O)[C@H](CC(C)C)NC1=O` ({CH2CO}-YAQP[NMeY]WLILWC-NH2; thioether N-11), the IC50 was 67 nM.

`CC[C@H](C)[C@@H]1NC(=O)[C@H](CC(C)C)NC(=O)[C@H](Cc2c[nH]c3ccccc23)N(C)C(=O)[C@H](Cc2ccc(O)cc2)NC(=O)[C@@H]2CCCN2C(=O)[C@H](CCC(N)=O)NC(=O)[C@H](CCCCN)NC(=O)[C@H](Cc2ccc(O)cc2)NC(=O)CSC[C@@H](C(N)=O)NC(=O)[C@H](Cc2c[nH]c3ccccc23)NC(=O)[C@H](CC(N)=O)NC1=O` ({CH2CO}-YKQPY[NMeW]LINWC-NH2; thioether N-11): the IC50 was 59 nM. As to `CC[C@H](C)[C@@H]1NC(=O)[C@H](CC(C)C)NC(=O)[C@H](Cc2c[nH]c3ccccc23)NC(=O)[C@H](Cc2ccc(O)cc2)NC(=O)[C@@H]2CCCN2C(=O)[C@H](C)NC(=O)[C@H](CCCCN)NC(=O)[C@H](Cc2ccc(O)cc2)NC(=O)CSC[C@@H](C(N)=O)NC(=O)[C@H](Cc2c[nH]c3ccccc23)NC(=O)[C@H](CC(N)=O)NC1=O` ({CH2CO}-YKAPYWLINWC-NH2; thioether N-11), the IC50 was determined as 40 nM. With `CC[C@H](C)[C@@H]1NC(=O)[C@H](CC(C)C)NC(=O)[C@H](Cc2c[nH]c3ccccc23)NC(=O)[C@H](Cc2ccc(O)cc2)N(C)C(=O)[C@@H]2CCCN2C(=O)[C@H](CCC(C)C)NC(=O)[C@H](C)NC(=O)[C@H](Cc2ccc(O)cc2)N(C)C(=O)CSC[C@@H](C(N)=O)NC(=O)[C@H](Cc2c[nH]c3ccccc23)NC(=O)[C@H](CC(N)=O)NC1=O` ({CH2CO}-[NMeY]A[hLeu]P[NMeY]WLINWC-NH2; thioether N-11), the IC50 is 1800 nM. On to `CC[C@H](C)[C@@H]1NC(=O)[C@H](CC(C)C)NC(=O)[C@H](Cc2c[nH]c3ccccc23)NC(=O)[C@H](Cc2ccc(O)cc2)NC(=O)[C@@H]2CCCN2C(=O)[C@H](CCC(N)=O)NC(=O)[C@H](CCCCN)NC(=O)[C@H](C)NC(=O)CSC[C@@H](C(N)=O)NC(=O)[C@H](Cc2c[nH]c3ccccc23)NC(=O)[C@H](CC(N)=O)NC1=O` ({CH2CO}-AKQPYWLINWC-NH2; thioether N-11), for which the IC50 was determined as 2500 nM. In the case of Ac-YKQPYWLINWA-NH2, the IC50 is greater than 10000 nM.

Regarding `CC[C@H](C)[C@@H]1NC(=O)[C@H](CC(C)C)NC(=O)[C@H](Cc2c[nH]c3ccccc23)N(C)C(=O)[C@H](Cc2ccc(O)cc2)NC(=O)[C@@H]2CCCN2C(=O)C(CCC(C)C)NC(=O)[C@H](C)N(C)C(=O)[C@H](Cc2ccc(O)cc2)NC(=O)CSC[C@@H](C(N)=O)NC(=O)[C@H](Cc2c[nH]c3ccccc23)NC(=O)[C@H](CC(N)=O)NC1=O` (some centres not stated) ({CH2CO}-Y[NMeA][ξhLeu]PY[NMeW]LINWC-NH2; thioether N-11), the IC50 came out at 190 nM. With `CCCC[C@@H]1NC(=O)[C@H](Cc2ccc(O)cc2)N(C)C(=O)CSC[C@@H](C(N)=O)NC(=O)[C@H](Cc2c[nH]c3ccccc23)NC(=O)[C@H](CC(N)=O)NC(=O)[C@H]([C@@H](C)CC)NC(=O)[C@H](CC(C)C)NC(=O)[C@H](Cc2c[nH]c3ccccc23)NC(=O)[C@H](Cc2ccc(O)cc2)NC(=O)[C@@H]2CCCN2C(=O)[C@@H](CCC(C)C)NC1=O`, the IC50 was 840 nM. As to `CC[C@H](C)[C@@H]1NC(=O)[C@H](CC(C)C)NC(=O)[C@H](C)NC(=O)[C@H](Cc2ccc(O)cc2)NC(=O)[C@@H]2CCCN2C(=O)[C@H](CCC(N)=O)NC(=O)[C@H](CCCCN)NC(=O)[C@H](Cc2ccc(O)cc2)NC(=O)CSC[C@@H](C(N)=O)NC(=O)[C@H](Cc2c[nH]c3ccccc23)NC(=O)[C@H](CC(N)=O)NC1=O` ({CH2CO}-YKQPYALINWC-NH2; thioether N-11), the IC50 came to 430 nM. In the case of `CC[C@H](C)[C@@H]1NC(=O)[C@H](CC(C)C)NC(=O)[C@H](Cc2c[nH]c3ccccc23)NC(=O)[C@H](Cc2ccc(O)cc2)NC(=O)[C@H](C)NC(=O)[C@H](CCC(N)=O)NC(=O)[C@H](CCCCN)NC(=O)[C@H](Cc2ccc(O)cc2)NC(=O)CSC[C@@H](C(N)=O)NC(=O)[C@H](Cc2c[nH]c3ccccc23)NC(=O)[C@H](CC(N)=O)NC1=O` ({CH2CO}-YKQAYWLINWC-NH2; thioether N-11) it was 9 nM.

Consider `CC[C@H](C)[C@@H]1NC(=O)[C@H](C)NC(=O)[C@H](Cc2c[nH]c3ccccc23)NC(=O)[C@H](Cc2ccc(O)cc2)NC(=O)[C@@H]2CCCN2C(=O)[C@H](CCC(N)=O)NC(=O)[C@H](CCCCN)NC(=O)[C@H](Cc2ccc(O)cc2)NC(=O)CSC[C@@H](C(N)=O)NC(=O)[C@H](Cc2c[nH]c3ccccc23)NC(=O)[C@H](CC(N)=O)NC1=O` ({CH2CO}-YKQPYWAINWC-NH2; thioether N-11), for which the IC50 was determined as 15 nM. For the compound `CC(C)C[C@@H]1NC(=O)[C@H](Cc2c[nH]c3ccccc23)NC(=O)[C@H](Cc2ccc(O)cc2)NC(=O)[C@@H]2CCCN2C(=O)[C@H](CCC(N)=O)NC(=O)[C@H](CCCCN)NC(=O)[C@H](Cc2ccc(O)cc2)NC(=O)CSC[C@@H](C(N)=O)NC(=O)[C@H](Cc2c[nH]c3ccccc23)NC(=O)[C@H](CC(N)=O)NC(=O)[C@H](C)NC1=O` ({CH2CO}-YKQPYWLANWC-NH2; thioether N-11), the IC50 is 170 nM. As for `CC[C@H](C)[C@@H]1NC(=O)[C@H](CC(C)C)NC(=O)[C@H](Cc2c[nH]c3ccccc23)N(C)C(=O)[C@H](Cc2ccc(O)cc2)NC(=O)[C@@H]2CCCN2C(=O)[C@H](CCC(N)=O)NC(=O)[C@H](C)N(C)C(=O)[C@H](Cc2ccc(O)cc2)NC(=O)CSC[C@@H](C(N)=O)NC(=O)[C@H](Cc2c[nH]c3ccccc23)NC(=O)[C@H](CC(N)=O)NC1=O` ({CH2CO}-Y[NMeA]QPY[NMeW]LINWC-NH2; thioether N-11), the IC50 was 54 nM. In the case of `CC[C@H](C)[C@@H]1NC(=O)[C@H](CC(C)C)NC(=O)[C@H](Cc2c[nH]c3ccccc23)NC(=O)[C@H](Cc2ccc(O)cc2)NC(=O)[C@@H]2CCCN2C(=O)[C@H](CCC(N)=O)NC(=O)[C@H](CCCCN)NC(=O)[C@H](Cc2ccc(O)cc2)NC(=O)CSC[C@@H](C(N)=O)NC(=O)[C@H](Cc2c[nH]c3ccccc23)NC(=O)[C@H](C)NC1=O` ({CH2CO}-YKQPYWLIAWC-NH2; thioether N-11), the IC50 turned out to be 76 nM. Turning to `CCCC[C@@H]1NC(=O)[C@H](Cc2ccc(O)cc2)N(C)C(=O)CSC[C@@H](C(N)=O)NC(=O)[C@H](Cc2c[nH]c3ccccc23)NC(=O)[C@@H](Cc2ccco2)NC(=O)[C@H]([C@@H](C)CC)NC(=O)[C@H](CC(C)C)NC(=O)[C@H](Cc2c[nH]c3ccccc23)NC(=O)[C@H](Cc2ccc(O)cc2)N(C)C(=O)[C@@H]2CCCN2C(=O)[C@H](CCC(N)=O)NC1=O`, the IC50 came to 3900 nM. With `CC[C@H](C)[C@@H]1NC(=O)[C@H](CC(C)C)NC(=O)[C@H](Cc2c[nH]c3ccccc23)NC(=O)[C@H](Cc2ccccc2)NC(=O)[C@@H]2CCCN2C(=O)[C@H](C)NC(=O)[C@H](C)NC(=O)[C@H](Cc2ccc(O)cc2)NC(=O)CSC[C@@H](C(N)=O)NC(=O)[C@H](Cc2c[nH]c3ccccc23)NC(=O)[C@H](CC(C)C)NC1=O` ({CH2CO}-YAAPFWLILWC-NH2; thioether N-11), the IC50 stood at 300 nM. Consider `CC[C@H](C)[C@@H]1NC(=O)[C@H](CC(C)C)NC(=O)[C@H](Cc2c[nH]c3ccccc23)NC(=O)[C@H](Cc2ccc(O)cc2)NC(=O)[C@@H]2CCCN2C(=O)[C@H](CCC(C)C)NC(=O)[C@H](C)N(C)C(=O)[C@H](Cc2ccc(O)cc2)NC(=O)CSC[C@@H](C(N)=O)NC(=O)[C@H](Cc2c[nH]c3ccccc23)NC(=O)[C@H](Cc2ccco2)NC1=O` ({CH2CO}-Y[NMeA][hLeu]PYWLI[Ala(2-furyl)]WC-NH2; thioether N-11), for which the IC50 is 4200 nM.

With `CC[C@H](C)[C@@H]1NC(=O)[C@H](CCCNC(=N)N)NC(=O)[C@H](Cc2c[nH]c3ccccc23)NC(=O)[C@H]([C@@H](C)O)NC(=O)[C@H](CO)NC(=O)[C@H](CCC(N)=O)NC(=O)[C@H](CCC(N)=O)NC(=O)[C@H](Cc2ccc(O)cc2)NC(=O)CSC[C@@H](C(N)=O)NC(=O)[C@H](Cc2c[nH]c3ccccc23)NC(=O)[C@H](CC(N)=O)NC1=O` ({CH2CO}-YQQSTWRINWC-NH2; thioether N-11), the IC50 amounted to 65 nM. As to `CC[C@H](C)[C@@H]1NC(=O)[C@H](CC(C)C)NC(=O)[C@H](Cc2c[nH]c3ccccc23)N(C)C(=O)[C@H](Cc2ccc(O)cc2)NC(=O)[C@@H]2CCCN2C(=O)[C@H](CCC(N)=O)NC(=O)[C@H](C)N(C)C(=O)[C@H](Cc2ccc(O)cc2)NC(=O)CSC[C@@H](C(N)=O)NC(=O)[C@H](Cc2c[nH]c3ccccc23)NC(=O)[C@H](Cc2ccco2)NC1=O` ({CH2CO}-Y[NMeA]QPY[NMeW]LI[Ala(2-furyl)]WC-NH2; thioether N-11), the IC50 worked out at 190 nM. As for `CC[C@H](C)[C@@H]1NC(=O)[C@H](CC(C)C)NC(=O)[C@H](Cc2c[nH]c3ccccc23)NC(=O)[C@H](Cc2ccc(O)cc2)NC(=O)[C@@H]2CCCN2C(=O)[C@H](C)NC(=O)[C@H](C)NC(=O)[C@H](Cc2ccc(O)cc2)NC(=O)CSC[C@@H](C(N)=O)NC(=O)[C@H](Cc2c[nH]c3ccccc23)NC(=O)[C@H](C)NC1=O` ({CH2CO}-YAAPYWLIAWC-NH2; thioether N-11), the IC50 stood at 820 nM. As to `CC[C@H](C)[C@@H]1NC(=O)[C@H]([C@@H](C)O)NC(=O)[C@H](Cc2c[nH]c3ccccc23)NC(=O)[C@@H]2CCCN2C(=O)CNC(=O)[C@H]([C@@H](C)O)NC(=O)[C@H](Cc2ccc(O)cc2)NC(=O)CSC[C@H](C(N)=O)NC(=O)[C@H](Cc2c[nH]c3ccccc23)NC(=O)[C@H](CCCNC(=N)N)NC1=O`, the IC50 amounted to 12 nM. As to `CC[C@H](C)[C@@H]1NC(=O)[C@H](CC(C)C)NC(=O)[C@H](Cc2c[nH]c3ccccc23)NC(=O)[C@H](Cc2ccc(O)cc2)NC(=O)[C@@H]2CCCN2C(=O)[C@H](CCC(N)=O)NC(=O)[C@H](CCCCN)NC(=O)[C@H](Cc2ccc(O)cc2)NC(=O)CSC[C@@H](C(N)=O)NC(=O)[C@H](C)NC(=O)[C@H](CC(N)=O)NC1=O` ({CH2CO}-YKQPYWLINAC-NH2; thioether N-11), the IC50 worked out at 7100 nM.
